{"source": "PubChem BioAssay AID1963963", "about": "(Molecular Pharmacology Branch, DTP, NCI, 2024)", "system": "958667-338-R-J2-PDC tumor spheroids viability", "assay": "Anticancer human tumor 958667-338-R-J2-PDC patient-derived colon adenocarcinoma cell line growth inhibition [PI3K]", "details": "spheroids with HUVEC and MSC; for IC50: curve of first compound; for viability, T/C: stronger effect = lower value", "how_it_was_run": "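Complex 3D spheroids (cancer cells + endothelial HUVEC + mesenchymal stem cells); drug pairs of targeted agent x inavolisib/alpelisib/duvelisib/copanlisib; half-log series from ~Cmax, max 10 microM if Cmax unknown; endpoint viability.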", "key": {"[1]": {"details": "second compound 0.0316 µM, first compound 0.0316 µM"}, "[2]": {"details": "second compound 0.0316 µM, first compound 0.1 µM"}, "[3]": {"details": "second compound 0.0316 µM, first compound 0.316 µM"}, "[4]": {"details": "second compound 0.0316 µM, first compound 1 µM"}, "[5]": {"details": "second compound 0.0316 µM, first compound 3.16 µM"}, "[6]": {"details": "second compound 0.0316 µM, first compound 10 µM"}, "[7]": {"details": "second compound 0.1 µM, first compound 0.0316 µM"}, "[8]": {"details": "second compound 0.1 µM, first compound 0.1 µM"}, "[9]": {"details": "second compound 0.1 µM, first compound 0.316 µM"}, "[10]": {"details": "second compound 0.1 µM, first compound 1 µM"}, "[11]": {"details": "second compound 0.1 µM, first compound 3.16 µM"}, "[12]": {"details": "second compound 0.1 µM, first compound 10 µM"}, "[13]": {"details": "second compound 0.316 µM, first compound 0.0316 µM"}, "[14]": {"details": "second compound 0.316 µM, first compound 0.1 µM"}, "[15]": {"details": "second compound 0.316 µM, first compound 0.316 µM"}, "[16]": {"details": "second compound 0.316 µM, first compound 1 µM"}, "[17]": {"details": "second compound 0.316 µM, first compound 3.16 µM"}, "[18]": {"details": "second compound 0.316 µM, first compound 10 µM"}, "[19]": {"details": "second compound 1 µM, first compound 0.0316 µM"}, "[20]": {"details": "second compound 1 µM, first compound 0.1 µM"}, "[21]": {"details": "second compound 1 µM, first compound 0.316 µM"}, "[22]": {"details": "second compound 1 µM, first compound 1 µM"}, "[23]": {"details": "second compound 1 µM, first compound 3.16 µM"}, "[24]": {"details": "second compound 1 µM, first compound 10 µM"}, "[25]": {"details": "second compound 3.16 µM, first compound 0.0316 µM"}, "[26]": {"details": "second compound 3.16 µM, first compound 0.1 µM"}, "[27]": {"details": "second compound 3.16 µM, first compound 0.316 µM"}, "[28]": {"details": "second compound 3.16 µM, first compound 1 µM"}, "[29]": {"details": "second compound 3.16 µM, first compound 3.16 µM"}, "[30]": {"details": "second compound 3.16 µM, first compound 10 µM"}, "[31]": {"details": "second compound 10 µM, first compound 0.0316 µM"}, "[32]": {"details": "second compound 10 µM, first compound 0.1 µM"}, "[33]": {"details": "second compound 10 µM, first compound 0.316 µM"}, "[34]": {"details": "second compound 10 µM, first compound 1 µM"}, "[35]": {"details": "second compound 10 µM, first compound 3.16 µM"}, "[36]": {"details": "second compound 10 µM, first compound 10 µM"}}}
{"compound": "CC1(C)CCC(CN2CCN(c3ccc(C(=O)NS(=O)(=O)c4ccc(NCC5CCOCC5)c([N+](=O)[O-])c4)c(Oc4cnc5[nH]ccc5c4)c3)CC2)=C(c2ccc(Cl)cc2)C1", "note": "+ Cc1nc(NC(=O)N2CCCC2C(N)=O)sc1-c1ccnc(C(C)(C)C(F)(F)F)c1;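 also: spheroids exposed to compounds for seven days before readout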", "values": [{"measurement": "IC50", "setting": "second compound 0.0316 µM", "result": 7.01, "unit": "µM"}, {"measurement": "IC50", "setting": "second compound 0.1 µM", "result": 6.73, "unit": "µM"}, {"measurement": "IC50", "setting": "second compound 0.316 µM", "result": 6.72, "unit": "µM"}, {"measurement": "IC50", "setting": "second compound 1 µM", "result": 6.91, "unit": "µM"}, {"measurement": "IC50", "setting": "second compound 3.16 µM", "result": 5.32, "unit": "µM"}, {"measurement": "IC50", "setting": "second compound 10 µM", "result": 4.21, "unit": "µM"}, {"measurement": "viability, T/C", "setting": "[1]", "result": 88.8, "unit": "%"}, {"measurement": "viability, T/C", "setting": "[2]", "result": 95, "unit": "%"}, {"measurement": "viability, T/C", "setting": "[3]", "result": 83.5, "unit": "%"}, {"measurement": "viability, T/C", "setting": "[4]", "result": 123, "unit": "%"}, {"measurement": "viability, T/C", "setting": "[5]", "result": 97.1, "unit": "%"}, {"measurement": "viability, T/C", "setting": "[6]", "result": 29.1, "unit": "%"}, {"measurement": "viability, T/C", "setting": "[7]", "result": 90.4, "unit": "%"}, {"measurement": "viability, T/C", "setting": "[8]", "result": 93.2, "unit": "%"}, {"measurement": "viability, T/C", "setting": "[9]", "result": 99.4, "unit": "%"}, {"measurement": "viability, T/C", "setting": "[10]", "result": 99.8, "unit": "%"}, {"measurement": "viability, T/C", "setting": "[11]", "result": 107, "unit": "%"}, {"measurement": "viability, T/C", "setting": "[12]", "result": 24.8, "unit": "%"}, {"measurement": "viability, T/C", "setting": "[13]", "result": 93.3, "unit": "%"}, {"measurement": "viability, T/C", "setting": "[14]", "result": 85.8, "unit": "%"}, {"measurement": "viability, T/C", "setting": "[15]", "result": 104, "unit": "%"}, {"measurement": "viability, T/C", "setting": "[16]", "result": 99, "unit": "%"}, {"measurement": "viability, T/C", "setting": "[17]", "result": 98.5, "unit": "%"}, {"measurement": "viability, T/C", "setting": "[18]", "result": 25.7, "unit": "%"}, {"measurement": "viability, T/C", "setting": "[19]", "result": 88.9, "unit": "%"}, {"measurement": "viability, T/C", "setting": "[20]", "result": 72.6, "unit": "%"}, {"measurement": "viability, T/C", "setting": "[21]", "result": 93.3, "unit": "%"}, {"measurement": "viability, T/C", "setting": "[22]", "result": 87.6, "unit": "%"}, {"measurement": "viability, T/C", "setting": "[23]", "result": 91.1, "unit": "%"}, {"measurement": "viability, T/C", "setting": "[24]", "result": 32.5, "unit": "%"}, {"measurement": "viability, T/C", "setting": "[25]", "result": 89.3, "unit": "%"}, {"measurement": "viability, T/C", "setting": "[26]", "result": 76.8, "unit": "%"}, {"measurement": "viability, T/C", "setting": "[27]", "result": 67, "unit": "%"}, {"measurement": "viability, T/C", "setting": "[28]", "result": 76.5, "unit": "%"}, {"measurement": "viability, T/C", "setting": "[29]", "result": 66.6, "unit": "%"}, {"measurement": "viability, T/C", "setting": "[30]", "result": 31.4, "unit": "%"}, {"measurement": "viability, T/C", "setting": "[31]", "result": 65.7, "unit": "%"}, {"measurement": "viability, T/C", "setting": "[32]", "result": 64.6, "unit": "%"}, {"measurement": "viability, T/C", "setting": "[33]", "result": 55.8, "unit": "%"}, {"measurement": "viability, T/C", "setting": "[34]", "result": 61.5, "unit": "%"}, {"measurement": "viability, T/C", "setting": "[35]", "result": 65.7, "unit": "%"}, {"measurement": "viability, T/C", "setting": "[36]", "result": 12, "unit": "%"}]}
{"compound": "C[C@@H](NC(=O)c1ncnc(N)c1Cl)c1ncc(C(=O)Nc2cc(C(F)(F)F)c(Cl)cn2)s1", "note": "+ Cc1nc(NC(=O)N2CCCC2C(N)=O)sc1-c1ccnc(C(C)(C)C(F)(F)F)c1", "values": [{"measurement": "IC50", "setting": "second compound 0.0316 µM", "result": "> 10", "unit": "µM"}, {"measurement": "IC50", "setting": "second compound 0.1 µM", "result": "> 10", "unit": "µM"}, {"measurement": "IC50", "setting": "second compound 0.316 µM", "result": "> 10", "unit": "µM"}, {"measurement": "IC50", "setting": "second compound 1 µM", "result": "> 10", "unit": "µM"}, {"measurement": "IC50", "setting": "second compound 3.16 µM", "result": "> 10", "unit": "µM"}, {"measurement": "IC50", "setting": "second compound 10 µM", "result": 3.29, "unit": "µM"}, {"measurement": "viability, T/C", "setting": "[1]", "result": 97.2, "unit": "%"}, {"measurement": "viability, T/C", "setting": "[2]", "result": 121, "unit": "%"}, {"measurement": "viability, T/C", "setting": "[3]", "result": 115, "unit": "%"}, {"measurement": "viability, T/C", "setting": "[4]", "result": 88.6, "unit": "%"}, {"measurement": "viability, T/C", "setting": "[5]", "result": 87.8, "unit": "%"}, {"measurement": "viability, T/C", "setting": "[6]", "result": 89.2, "unit": "%"}, {"measurement": "viability, T/C", "setting": "[7]", "result": 119, "unit": "%"}, {"measurement": "viability, T/C", "setting": "[8]", "result": 126, "unit": "%"}, {"measurement": "viability, T/C", "setting": "[9]", "result": 113, "unit": "%"}, {"measurement": "viability, T/C", "setting": "[10]", "result": 108, "unit": "%"}, {"measurement": "viability, T/C", "setting": "[11]", "result": 107, "unit": "%"}, {"measurement": "viability, T/C", "setting": "[12]", "result": 94.9, "unit": "%"}, {"measurement": "viability, T/C", "setting": "[13]", "result": 101, "unit": "%"}, {"measurement": "viability, T/C", "setting": "[14]", "result": 85, "unit": "%"}, {"measurement": "viability, T/C", "setting": "[15]", "result": 106, "unit": "%"}, {"measurement": "viability, T/C", "setting": "[16]", "result": 111, "unit": "%"}, {"measurement": "viability, T/C", "setting": "[17]", "result": 94.7, "unit": "%"}, {"measurement": "viability, T/C", "setting": "[18]", "result": 90.2, "unit": "%"}, {"measurement": "viability, T/C", "setting": "[19]", "result": 87, "unit": "%"}, {"measurement": "viability, T/C", "setting": "[20]", "result": 95.8, "unit": "%"}, {"measurement": "viability, T/C", "setting": "[21]", "result": 116, "unit": "%"}, {"measurement": "viability, T/C", "setting": "[22]", "result": 94.9, "unit": "%"}, {"measurement": "viability, T/C", "setting": "[23]", "result": 81.6, "unit": "%"}, {"measurement": "viability, T/C", "setting": "[24]", "result": 75.7, "unit": "%"}, {"measurement": "viability, T/C", "setting": "[25]", "result": 77.9, "unit": "%"}, {"measurement": "viability, T/C", "setting": "[26]", "result": 86.9, "unit": "%"}, {"measurement": "viability, T/C", "setting": "[27]", "result": 82.8, "unit": "%"}, {"measurement": "viability, T/C", "setting": "[28]", "result": 90.4, "unit": "%"}, {"measurement": "viability, T/C", "setting": "[29]", "result": 89.8, "unit": "%"}, {"measurement": "viability, T/C", "setting": "[30]", "result": 57.9, "unit": "%"}, {"measurement": "viability, T/C", "setting": "[31]", "result": 79.4, "unit": "%"}, {"measurement": "viability, T/C", "setting": "[32]", "result": 82.5, "unit": "%"}, {"measurement": "viability, T/C", "setting": "[33]", "result": 76.6, "unit": "%"}, {"measurement": "viability, T/C", "setting": "[34]", "result": 71.3, "unit": "%"}, {"measurement": "viability, T/C", "setting": "[35]", "result": 50.7, "unit": "%"}, {"measurement": "viability, T/C", "setting": "[36]", "result": 28.2, "unit": "%"}]}
